From PubChem BioAssay (NCI)
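Where inhibition never reached the appropriate level, the endpoint shown equals the highest concentration tested. Otherwise, values were interpolated linearly from a five-concentration, 48-hour dose response in 96-well plates. GI50 = concentration required for 50% inhibition of growth. The concentration for full growth arrest is given as TGI.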

Tests used:
Assay in all cases: growth of human tumour cells (NCI), 48 h
EKVX NSCLC = test system: EKVX NSCLC
MDA-MB-231 breast = test system: MDA-MB-231 breast
SF-295 CNS = test system: SF-295 CNS
A498 renal = test system: A498 renal
A549 NSCLC = test system: A549 NSCLC
NCI-H522 lung = test system: NCI-H522 lung
HOP-62 NSCLC = test system: HOP-62 NSCLC
HS 578T breast = test system: HS 578T breast
OVCAR-4 ovarian = test system: OVCAR-4 ovarian
SN12C renal = test system: SN12C renal
SW-620 colon = test system: SW-620 colon
NCI-H23 lung = test system: NCI-H23 lung
CAKI-1 renal = test system: CAKI-1 renal
MCF7 breast = test system: MCF7 breast
SNB-19 CNS = test system: SNB-19 CNS
OVCAR-8 ovarian = test system: OVCAR-8 ovarian
SNB-75 CNS = test system: SNB-75 CNS
PC-3 prostate = test system: PC-3 prostate
DU-145 prostate = test system: DU-145 prostate
SK-MEL-28 melanoma = test system: SK-MEL-28 melanoma
SF-539 CNS = test system: SF-539 CNS
HT29 colon = test system: HT29 colon
TK-10 renal = test system: TK-10 renal
HCT-116 colon = test system: HCT-116 colon
IGROV1 ovarian = test system: IGROV1 ovarian
HL-60(TB) leukemia = test system: HL-60(TB) leukemia
HCT-15 colon = test system: HCT-15 colon
HCC-2998 colon = test system: HCC-2998 colon
CCRF-CEM leukemia = test system: CCRF-CEM leukemia
COLO 205 colon = test system: COLO 205 colon
SF-268 CNS = test system: SF-268 CNS
UACC-257 melanoma = test system: UACC-257 melanoma
RXF 393 renal = test system: RXF 393 renal
UO-31 renal = test system: UO-31 renal
ACHN renal = test system: ACHN renal
LOX IMVI melanoma = test system: LOX IMVI melanoma
U251 CNS = test system: U251 CNS
OVCAR-5 ovarian = test system: OVCAR-5 ovarian
NCI-H226 lung = test system: NCI-H226 lung
KM12 colon = test system: KM12 colon
K-562 leukemia = test system: K-562 leukemia
BT-549 breast = test system: BT-549 breast
MOLT-4 leukemia = test system: MOLT-4 leukemia
NCI/ADR-RES ovarian = test system: NCI/ADR-RES ovarian
786-0 renal = test system: 786-0 renal
MDA-MB-435 = test system: MDA-MB-435
OVCAR-3 ovarian = test system: OVCAR-3 ovarian
NCI-H460 lung = test system: NCI-H460 lung
MALME-3M melanoma = test system: MALME-3M melanoma
RPMI-8226 leukemia = test system: RPMI-8226 leukemia
HOP-92 NSCLC = test system: HOP-92 NSCLC
SK-MEL-5 melanoma = test system: SK-MEL-5 melanoma
SR leukemia = test system: SR leukemia
UACC-62 melanoma = test system: UACC-62 melanoma
SK-MEL-2 melanoma = test system: SK-MEL-2 melanoma
M14 melanoma = test system: M14 melanoma
SK-OV-3 ovarian = test system: SK-OV-3 ovarian

`S=c1ncc2n[nH]nc2[nH]1` gave a TGI (EKVX NSCLC) of over 100 µM, a TGI (MDA-MB-231 breast) of over 100000 nM and a TGI (SF-295 CNS) of over 100 µM. It also gave a TGI (A498 renal) of over 100000 nM, a TGI (A549 NSCLC) of over 100 µM and a TGI (NCI-H522 lung) of over 100000 nM. It also gave a TGI (HOP-62 NSCLC) of over 100 µM, a TGI (HS 578T breast) of over 100 µM and a TGI (OVCAR-4 ovarian) of over 100 µM. The TGI (SN12C renal) was over 100 µM, the TGI (SW-620 colon) was over 100 µM and the TGI (NCI-H23 lung) was over 100 µM. The TGI (CAKI-1 renal) was over 100 µM, the TGI (MCF7 breast) was over 100 µM and the TGI (SNB-19 CNS) was over 100 µM. It also gave a TGI (OVCAR-8 ovarian) of over 100 µM, a TGI (SNB-75 CNS) of over 100 µM and a TGI (PC-3 prostate) of over 100 µM. The TGI (DU-145 prostate) was over 100 µM, the TGI (SK-MEL-28 melanoma) was over 100 µM and the TGI (SF-539 CNS) was over 100000 nM. The TGI (HT29 colon) was over 100 µM, the TGI (TK-10 renal) was over 100 µM and the TGI (HCT-116 colon) was over 100 µM. It also gave a TGI (IGROV1 ovarian) of over 100 µM, a TGI (HL-60(TB) leukemia) of over 100 µM and a TGI (HCT-15 colon) of over 100 µM. It also gave a TGI (HCC-2998 colon) of over 100 µM, a TGI (CCRF-CEM leukemia) of over 100 µM and a TGI (COLO 205 colon) of over 100000 nM. For the same compound, the TGI (SF-268 CNS) was over 100 µM, the TGI (UACC-257 melanoma) was over 100 µM and the TGI (RXF 393 renal) was over 100 µM. It also gave a TGI (UO-31 renal) of over 100 µM, a TGI (ACHN renal) of over 100 µM and a TGI (LOX IMVI melanoma) of over 100 µM. The TGI (U251 CNS) was over 100 µM, the TGI (OVCAR-5 ovarian) was over 100 µM and the TGI (NCI-H226 lung) was over 100 µM. It also gave a TGI (KM12 colon) of over 100 µM, a TGI (K-562 leukemia) of over 100 µM and a TGI (BT-549 breast) of over 100000 nM. The TGI (MOLT-4 leukemia) was over 100 µM, the TGI (NCI/ADR-RES ovarian) was over 100 µM and the TGI (786-0 renal) was over 100 µM. It also gave a TGI (MDA-MB-435) of over 100 µM, a TGI (OVCAR-3 ovarian) of over 100 µM and a TGI (NCI-H460 lung) of over 100 µM. The TGI (MALME-3M melanoma) was over 100 µM, the TGI (RPMI-8226 leukemia) was over 100 µM and the TGI (HOP-92 NSCLC) was over 100 µM. It also gave a TGI (SK-MEL-5 melanoma) of over 100000 nM and a TGI (SR leukemia) of over 100 µM.
In the case of `COc1cc2cc(c1Cl)N(C)C(=O)C[C@H](OC(=O)[C@H](C)N(C)C(=O)CCS)C[C@]1(C)O[C@H]1[C@H](C)[C@@H]1C[C@@](O)(NC(=O)O1)[C@H](OC)/C=C/C=C(\C)C2`, the GI50 (UACC-62 melanoma) is reported as under 5 nM, the TGI (UACC-62 melanoma) is reported as over 50 µM and the GI50 (EKVX NSCLC) is reported as 9.51 nM. It also gave a TGI (EKVX NSCLC) of over 50 µM, a GI50 (MDA-MB-231 breast) of 6.81 nM and a TGI (MDA-MB-231 breast) of 1610 nM. For the same compound, the GI50 (SF-295 CNS) was under 5 nM, the GI50 (A498 renal) was under 5 nM and the TGI (A498 renal) was 496 nM. For the same compound, the GI50 (A549 NSCLC) was 7.52 nM, the TGI (A549 NSCLC) was over 50 µM and the GI50 (NCI-H522 lung) was under 5 nM. It also gave a TGI (NCI-H522 lung) of 42.6 nM, a GI50 (HOP-62 NSCLC) of under 5 nM and a TGI (HOP-62 NSCLC) of over 50 µM. It also gave a GI50 (HS 578T breast) of 16.4 nM, a TGI (HS 578T breast) of over 32 µM and a GI50 (OVCAR-4 ovarian) of 21.8 nM. For the same compound, the TGI (OVCAR-4 ovarian) was over 50 µM, the GI50 (SN12C renal) was under 5 nM and the TGI (SN12C renal) was over 50 µM. For the same compound, the GI50 (SW-620 colon) was under 5 nM, the TGI (SW-620 colon) was over 50 µM and the GI50 (NCI-H23 lung) was 8.04 nM. The TGI (NCI-H23 lung) was over 50 µM, the GI50 (MCF7 breast) was under 5 nM and the TGI (MCF7 breast) was over 50 µM. It also gave a GI50 (SNB-19 CNS) of under 5 nM, a TGI (SNB-19 CNS) of over 50 µM and a GI50 (OVCAR-8 ovarian) of 8.3 nM. For the same compound, the TGI (OVCAR-8 ovarian) was over 50 µM, the GI50 (SNB-75 CNS) was under 5 nM and the TGI (SNB-75 CNS) was over 50 µM. For the same compound, the GI50 (PC-3 prostate) was under 5 nM, the TGI (PC-3 prostate) was over 50 µM and the GI50 (SK-MEL-2 melanoma) was under 5 nM. The TGI (SK-MEL-2 melanoma) was over 50 µM, the GI50 (M14 melanoma) was under 5 nM and the TGI (M14 melanoma) was under 5 nM. It also gave a GI50 (DU-145 prostate) of under 5 nM, a TGI (DU-145 prostate) of over 50 µM and a GI50 (SK-MEL-28 melanoma) of 3.47 µM. It also gave a TGI (SK-MEL-28 melanoma) of over 50 µM, a GI50 (SF-539 CNS) of under 5 nM and a TGI (SF-539 CNS) of 67.4 nM. It also gave a GI50 (HT29 colon) of under 5 nM, a TGI (HT29 colon) of over 50 µM and a GI50 (TK-10 renal) of over 17.1 µM. The TGI (TK-10 renal) was over 50 µM, the GI50 (HCT-116 colon) was under 5 nM and the TGI (HCT-116 colon) was 5.78 µM. It also gave a GI50 (IGROV1 ovarian) of 7.62 nM, a TGI (IGROV1 ovarian) of over 50 µM and a GI50 (SK-OV-3 ovarian) of under 5 nM. It also gave a TGI (SK-OV-3 ovarian) of over 50 µM, a GI50 (HL-60(TB) leukemia) of under 5 nM and a TGI (HL-60(TB) leukemia) of under 0.005 µM. The GI50 (HCT-15 colon) was 6.24 nM, the TGI (HCT-15 colon) was over 50 µM and the GI50 (HCC-2998 colon) was 6.09 nM. It also gave a TGI (HCC-2998 colon) of over 50 µM, a GI50 (CCRF-CEM leukemia) of under 5 nM and a TGI (CCRF-CEM leukemia) of over 50 µM. The GI50 (COLO 205 colon) was under 5 nM, the TGI (COLO 205 colon) was 25.7 nM and the GI50 (SF-268 CNS) was 9.54 nM. For the same compound, the TGI (SF-268 CNS) was over 50 µM, the GI50 (UACC-257 melanoma) was over 50 µM and the TGI (UACC-257 melanoma) was over 50 µM. It also gave a GI50 (RXF 393 renal) of 6.44 nM, a TGI (RXF 393 renal) of over 50 µM and a GI50 (UO-31 renal) of 28.2 nM. It also gave a TGI (UO-31 renal) of over 50 µM, a GI50 (ACHN renal) of under 5 nM and a TGI (ACHN renal) of over 50 µM. It also gave a GI50 (LOX IMVI melanoma) of under 5 nM, a TGI (LOX IMVI melanoma) of over 22.9 µM and a GI50 (U251 CNS) of under 5 nM. The TGI (U251 CNS) was over 32.9 µM, the GI50 (OVCAR-5 ovarian) was 9.94 nM and the TGI (OVCAR-5 ovarian) was over 50 µM. For the same compound, the GI50 (NCI-H226 lung) was 38 nM, the TGI (NCI-H226 lung) was over 50 µM and the GI50 (KM12 colon) was under 5 nM. For the same compound, the TGI (KM12 colon) was over 50 µM, the GI50 (K-562 leukemia) was under 5 nM and the TGI (K-562 leukemia) was over 50 µM. It also gave a GI50 (BT-549 breast) of under 5 nM, a TGI (BT-549 breast) of 134 nM and a GI50 (MOLT-4 leukemia) of under 5 nM. For the same compound, the TGI (MOLT-4 leukemia) was over 50 µM, the GI50 (NCI/ADR-RES ovarian) was 24.4 nM and the TGI (NCI/ADR-RES ovarian) was 34.8 µM. For the same compound, the GI50 (786-0 renal) was 9.06 nM, the TGI (786-0 renal) was over 24.7 µM and the GI50 (MDA-MB-435) was under 5 nM. For the same compound, the TGI (MDA-MB-435) was under 0.005 µM, the GI50 (OVCAR-3 ovarian) was under 5 nM and the TGI (OVCAR-3 ovarian) was over 50 µM. The GI50 (NCI-H460 lung) was under 5 nM, the TGI (NCI-H460 lung) was over 30.8 µM and the GI50 (RPMI-8226 leukemia) was under 5 nM. It also gave a TGI (RPMI-8226 leukemia) of 21.6 µM, a GI50 (HOP-92 NSCLC) of under 5 nM and a TGI (HOP-92 NSCLC) of 49.6 µM. For the same compound, the GI50 (SK-MEL-5 melanoma) was under 5 nM, the TGI (SK-MEL-5 melanoma) was 62.8 nM and the GI50 (SR leukemia) was under 5 nM. It also gave a TGI (SR leukemia) of over 50 µM.
